Patent US10188603B2, “Topical systems and methods for treating sexual dysfunction” (priority 2013, dated 2019)

Tests used:
[1] = tested on: micro-capillary blood flow to skin; assay: Laser Doppler capillary blood flow in humans, 10,000 ppm NO in closed chamber (Example 5); assay type: in vivo, human; conditions: applied to the skin at 1/10% in alcohol
Description: The formulation used in these studies contained nitric oxide dispersed in a lipid matrix. […] Nitric oxide is a very rapid acting molecule, and these studies used a system that employed laser Doppler with a covered chamber. The formulation was placed into the chamber and then attached to the skin by an adhesive layer on the covering. This provided a stable measuring device as determined by multiple normal evaluations of the capillary blood flow without treatment of nitric oxide.
A known positive control, methyl nicotinate, was applied to the skin at a concentration of 1/10% in alcohol. […] The vascular dynamics are such that when the blood vessels dilate physical parameters follow Bernoulli's law. This states that as one increases the diameter of a tube containing a liquid to flow will increase but the pressure and the speed of the liquid will decrease. The laser Doppler device accurately measured these parameters.
The test product was labeled as 10,000 ppm NO (nitric oxide). The study participants had 100 mg of the test product applied in a closed Hilltop chamber on the forearm. […]
A Moor Instruments DRT4 Laser Doppler Blood Flow Monitor (Devon, England) was used in these studies. The laser Doppler technique measured blood flow in the microcapillaries of the skin that are close to the skin surface and the blood flow in underlying arterioles and venules that help to regulate skin temperature. […]

[2] = tested on: capillary circulation of the skin; assay: Laser Doppler circulation in five human subjects (Example 8); assay type: in vivo; conditions: positive control formulation containing 0.1% methyl nicotinate
Description: This example illustrates delivery of nitric oxide formulations to five human subjects, using procedures and formulations similar to those discussed in Example 5. Each person served as their own control for the testing. A Moor Instruments Laser Doppler was used to determine circulation. […] The formulations used produce positive, almost immediate results when applied to the skin which, in these studies, was manifested by vasodilatation of the cutaneous vascular system.
For each subject, the following creams were applied: a negative control formulation (containing no NO), 0.010 gram of a 10,000 ppm NO formulation, 0.020 gram of a 10,000 ppm NO formulation, and a positive control formulation containing 0.1% methyl nicotinate. The formulations were prepared using procedures similar to those discussed in Example 1.

Q: Which results are given for `COC(=O)c1cccnc1` [methyl nicotinate]?
A: laser Doppler response of positive control [1]: rapid response typical of the vasodilator; vasodilatation (laser Doppler) [2]: vasodilatation was observed
